Tested on: Mus musculus
Test: Increase in mean survival days was determined in mice after ip administration of 10 mg/kg
Assay type: functional
Settings: route intraperitoneal

SMILES | Mean survival days
Cc1ccc(-n2c3nc(=O)n(C)c(=O)c-3nc3ccccc32)cc1 | 0 days
CSc1cccc(-n2c3nc(=O)n(C)c(=O)c-3nc3ccccc32)c1 | 0.2 days
CSc1ccc(-n2c3nc(=O)n(C)c(=O)c-3nc3ccccc32)cc1 | 0.2 days
CCc1ccc(-n2c3nc(=O)n(C)c(=O)c-3nc3ccccc32)cc1 | 0.2 days
Cn1c(=O)nc2n(-c3ccc(C(=O)O)cc3)c3ccccc3nc-2c1=O | 0 days
Cn1c(=O)nc2n(-c3ccc(F)c(F)c3)c3ccccc3nc-2c1=O | 0 days
Cc1ccc(-n2c3nc(=O)n(C)c(=O)c-3nc3ccccc32)cc1Cl | 0 days
COc1cccc(-n2c3nc(=O)n(C)c(=O)c-3nc3ccccc32)c1 | 0 days
CN(C)c1ccc(-n2c3nc(=O)n(C)c(=O)c-3nc3ccccc32)cc1 | 0 days
Cn1c(=O)nc2n(-c3ccc(Cl)c(Cl)c3)c3ccccc3nc-2c1=O | 0 days
Cn1c(=O)nc2n(-c3ccc(O)cc3)c3ccccc3nc-2c1=O | 0 days
Cn1c(=O)nc2n(-c3ccc(Cl)c(C(F)(F)F)c3)c3ccccc3nc-2c1=O | 0 days

Tested on: Mus musculus
Test: Increase in mean survival days was determined in mice after ip administration of 50 mg/kg
Assay type: functional
Settings: route intraperitoneal

SMILES | Mean survival days
Cc1ccc(-n2c3nc(=O)n(C)c(=O)c-3nc3ccccc32)cc1 | 0.3 days
Cn1c(=O)nc2n(-c3ccc(Cl)c(Cl)c3)c3ccccc3nc-2c1=O | 0 days

Tested on: Mus musculus
Test: Antimalarial activity was evaluated against Plasmodium vinckei V52 after intraperitoneal administration at dose 70 mg/kg
Assay type: functional
Settings: not given

SMILES | Cured
Cc1ccc(-n2c3nc(=O)n(C)c(=O)c-3nc3ccccc32)cc1 | 0%
Cn1c(=O)nc2n(-c3ccc(Cl)c(Cl)c3)c3ccccc3nc-2c1=O | 0%

Tested on: Plasmodium vinckei vinckei
Test: Increase in mean survival days of Plasmodium inoculated mice (Mus musculus) after 70 mg/Kg intraperitoneal dose
Assay type: functional
Settings: not given

SMILES | Mean survival days
Cc1ccc(-n2c3nc(=O)n(C)c(=O)c-3nc3ccccc32)cc1 | 0 days
CSc1cccc(-n2c3nc(=O)n(C)c(=O)c-3nc3ccccc32)c1 | 0 days
CSc1ccc(-n2c3nc(=O)n(C)c(=O)c-3nc3ccccc32)cc1 | 0 days
CCc1ccc(-n2c3nc(=O)n(C)c(=O)c-3nc3ccccc32)cc1 | -0.4 days
Cn1c(=O)nc2n(-c3ccc(C(=O)O)cc3)c3ccccc3nc-2c1=O | -0.2 days
Cc1ccc(-n2c3nc(=O)n(C)c(=O)c-3nc3ccccc32)cc1Cl | 0 days
COc1cccc(-n2c3nc(=O)n(C)c(=O)c-3nc3ccccc32)c1 | 0 days
CN(C)c1ccc(-n2c3nc(=O)n(C)c(=O)c-3nc3ccccc32)cc1 | 0 days
Cn1c(=O)nc2n(-c3ccc(Cl)c(Cl)c3)c3ccccc3nc-2c1=O | 0 days
Cn1c(=O)nc2n(-c3ccc(O)cc3)c3ccccc3nc-2c1=O | 0 days
Cn1c(=O)nc2n(-c3ccc(Cl)c(C(F)(F)F)c3)c3ccccc3nc-2c1=O | 0.2 days

Tested on: Mus musculus
Test: Increase in mean survival days was determined in mice after ip administration of 20 mg/kg
Assay type: functional
Settings: route intraperitoneal

SMILES | Mean survival days
CSc1cccc(-n2c3nc(=O)n(C)c(=O)c-3nc3ccccc32)c1 | 0 days
CSc1ccc(-n2c3nc(=O)n(C)c(=O)c-3nc3ccccc32)cc1 | 0.5 days
CCc1ccc(-n2c3nc(=O)n(C)c(=O)c-3nc3ccccc32)cc1 | 0.3 days
Cn1c(=O)nc2n(-c3ccc(F)c(F)c3)c3ccccc3nc-2c1=O | -0.5 days
COc1cccc(-n2c3nc(=O)n(C)c(=O)c-3nc3ccccc32)c1 | 0 days
Cn1c(=O)nc2n(-c3ccc(Cl)c(C(F)(F)F)c3)c3ccccc3nc-2c1=O | 0 days

Tested on: Mus musculus
Test: Increase in mean survival days was determined in mice after ip administration of 15 mg/kg
Assay type: functional
Settings: route intraperitoneal

SMILES | Mean survival days
Cn1c(=O)nc2n(-c3ccc(Cl)c(C(F)(F)F)c3)c3ccccc3nc-2c1=O | 0 days

Tested on: Plasmodium vinckei vinckei
Test: Antimalarial activity against Plasmodium vinckei V52 on 30 mg/kg intraperitoneal dose
Assay type: functional
Settings: not given

SMILES | Cured
Cc1ccc(-n2c3nc(=O)n(C)c(=O)c-3nc3ccccc32)cc1 | 0%
CSc1cccc(-n2c3nc(=O)n(C)c(=O)c-3nc3ccccc32)c1 | 0%
CSc1ccc(-n2c3nc(=O)n(C)c(=O)c-3nc3ccccc32)cc1 | 0%
CCc1ccc(-n2c3nc(=O)n(C)c(=O)c-3nc3ccccc32)cc1 | 0%
Cn1c(=O)nc2n(-c3ccc(C(=O)O)cc3)c3ccccc3nc-2c1=O | 0%
Cn1c(=O)nc2n(-c3ccc(F)c(F)c3)c3ccccc3nc-2c1=O | 0%
COc1cccc(-n2c3nc(=O)n(C)c(=O)c-3nc3ccccc32)c1 | 0%
Cn1c(=O)nc2n(-c3ccc(Cl)c(C(F)(F)F)c3)c3ccccc3nc-2c1=O | 0%

Tested on: Plasmodium vinckei vinckei
Test: Antimalarial activity against Plasmodium vinckei V52 after 20 mg/kg intraperitoneal dose
Assay type: functional
Settings: not given

SMILES | Cured
CSc1cccc(-n2c3nc(=O)n(C)c(=O)c-3nc3ccccc32)c1 | 0%
CSc1ccc(-n2c3nc(=O)n(C)c(=O)c-3nc3ccccc32)cc1 | 0%
CCc1ccc(-n2c3nc(=O)n(C)c(=O)c-3nc3ccccc32)cc1 | 0%
Cn1c(=O)nc2n(-c3ccc(F)c(F)c3)c3ccccc3nc-2c1=O | 0%
Cc1ccc(-n2c3nc(=O)n(C)c(=O)c-3nc3ccccc32)cc1Cl | 0%
COc1cccc(-n2c3nc(=O)n(C)c(=O)c-3nc3ccccc32)c1 | 0%
CN(C)c1ccc(-n2c3nc(=O)n(C)c(=O)c-3nc3ccccc32)cc1 | 0%
Cn1c(=O)nc2n(-c3ccc(Cl)c(Cl)c3)c3ccccc3nc-2c1=O | 0%
Cn1c(=O)nc2n(-c3ccc(O)cc3)c3ccccc3nc-2c1=O | 0%
Cn1c(=O)nc2n(-c3ccc(Cl)c(C(F)(F)F)c3)c3ccccc3nc-2c1=O | 0%

Tested on: Mus musculus
Test: Antimalarial activity was evaluated against Plasmodium vinckei V52 after intraperitoneal administration at dose 15 mg/kg
Assay type: functional
Settings: not given

SMILES | Cured
Cn1c(=O)nc2n(-c3ccc(Cl)c(C(F)(F)F)c3)c3ccccc3nc-2c1=O | 0%

Tested on: Mus musculus
Test: Increase in mean survival days was determined in mice after ip administration of 30 mg/kg
Assay type: functional
Settings: route intraperitoneal

SMILES | Mean survival days
Cc1ccc(-n2c3nc(=O)n(C)c(=O)c-3nc3ccccc32)cc1 | 0.2 days
CSc1cccc(-n2c3nc(=O)n(C)c(=O)c-3nc3ccccc32)c1 | 0 days
CSc1ccc(-n2c3nc(=O)n(C)c(=O)c-3nc3ccccc32)cc1 | 0.5 days
CCc1ccc(-n2c3nc(=O)n(C)c(=O)c-3nc3ccccc32)cc1 | 0 days
Cn1c(=O)nc2n(-c3ccc(C(=O)O)cc3)c3ccccc3nc-2c1=O | 0.2 days
Cn1c(=O)nc2n(-c3ccc(F)c(F)c3)c3ccccc3nc-2c1=O | 0 days
Cc1ccc(-n2c3nc(=O)n(C)c(=O)c-3nc3ccccc32)cc1Cl | 0 days
COc1cccc(-n2c3nc(=O)n(C)c(=O)c-3nc3ccccc32)c1 | 0 days
CN(C)c1ccc(-n2c3nc(=O)n(C)c(=O)c-3nc3ccccc32)cc1 | 0 days
Cn1c(=O)nc2n(-c3ccc(Cl)c(Cl)c3)c3ccccc3nc-2c1=O | 0 days
Cn1c(=O)nc2n(-c3ccc(O)cc3)c3ccccc3nc-2c1=O | 0.2 days
Cn1c(=O)nc2n(-c3ccc(Cl)c(C(F)(F)F)c3)c3ccccc3nc-2c1=O | 0 days

Tested on: Mus musculus
Test: Antimalarial activity was evaluated against Plasmodium vinckei V52 after intraperitoneal administration at dose 50 mg/kg
Assay type: functional
Settings: not given

SMILES | Cured
Cc1ccc(-n2c3nc(=O)n(C)c(=O)c-3nc3ccccc32)cc1 | 0%

Species: Mus musculus
Test: Effective dose required to obtain a parasitaemia of 40% 48 hours after treatment in mice
Assay type: functional
Settings: not given

SMILES | ED40
CCc1ccc(-n2c3nc(=O)n(C)c(=O)c-3nc3ccccc32)cc1 | 281 µmol/kg
Cc1ccc(-n2c3nc(=O)n(C)c(=O)c-3nc3ccccc32)cc1Cl | 456 µmol/kg

Tested on: Mus musculus
Test: Antimalarial activity was evaluated against Plasmodium vinckei vinckei V52 after intraperitoneal administration at dose 50 mg/kg
Assay type: functional
Settings: not given

SMILES | Cured
Cn1c(=O)nc2n(-c3ccc(Cl)c(Cl)c3)c3ccccc3nc-2c1=O | 0%

Tested on: Mus musculus
Test: Increase in mean survival days was determined in mice after ip administration of 70 mg/kg; toxic
Assay type: functional
Settings: route intraperitoneal

SMILES | Mean survival days
Cn1c(=O)nc2n(-c3ccc(F)c(F)c3)c3ccccc3nc-2c1=O | -1 days

Tested on: Plasmodium vinckei vinckei
Test: Antimalarial activity against Plasmodium vinckei V52 on 70 mg/kg intraperitoneal dose
Assay type: functional
Settings: not given

SMILES | Cured
CSc1cccc(-n2c3nc(=O)n(C)c(=O)c-3nc3ccccc32)c1 | 0%
CSc1ccc(-n2c3nc(=O)n(C)c(=O)c-3nc3ccccc32)cc1 | 0%
CCc1ccc(-n2c3nc(=O)n(C)c(=O)c-3nc3ccccc32)cc1 | 0%
Cn1c(=O)nc2n(-c3ccc(C(=O)O)cc3)c3ccccc3nc-2c1=O | 0%
Cn1c(=O)nc2n(-c3ccc(F)c(F)c3)c3ccccc3nc-2c1=O | 0%
Cc1ccc(-n2c3nc(=O)n(C)c(=O)c-3nc3ccccc32)cc1Cl | 0%
COc1cccc(-n2c3nc(=O)n(C)c(=O)c-3nc3ccccc32)c1 | 0%
CN(C)c1ccc(-n2c3nc(=O)n(C)c(=O)c-3nc3ccccc32)cc1 | 0%
Cn1c(=O)nc2n(-c3ccc(O)cc3)c3ccccc3nc-2c1=O | 0%
Cn1c(=O)nc2n(-c3ccc(Cl)c(C(F)(F)F)c3)c3ccccc3nc-2c1=O | 0%

Tested on: Plasmodium vinckei vinckei
Test: Antimalarial activity against Plasmodium vinckei V52 on 10 mg/kg intraperitoneal dose
Assay type: functional
Settings: not given

SMILES | Cured
Cc1ccc(-n2c3nc(=O)n(C)c(=O)c-3nc3ccccc32)cc1 | 0%
CSc1cccc(-n2c3nc(=O)n(C)c(=O)c-3nc3ccccc32)c1 | 0%
CSc1ccc(-n2c3nc(=O)n(C)c(=O)c-3nc3ccccc32)cc1 | 0%
CCc1ccc(-n2c3nc(=O)n(C)c(=O)c-3nc3ccccc32)cc1 | 0%
Cn1c(=O)nc2n(-c3ccc(C(=O)O)cc3)c3ccccc3nc-2c1=O | 0%
Cn1c(=O)nc2n(-c3ccc(F)c(F)c3)c3ccccc3nc-2c1=O | 0%
Cc1ccc(-n2c3nc(=O)n(C)c(=O)c-3nc3ccccc32)cc1Cl | 0%
COc1cccc(-n2c3nc(=O)n(C)c(=O)c-3nc3ccccc32)c1 | 0%
CN(C)c1ccc(-n2c3nc(=O)n(C)c(=O)c-3nc3ccccc32)cc1 | 0%
Cn1c(=O)nc2n(-c3ccc(Cl)c(Cl)c3)c3ccccc3nc-2c1=O | 0%
Cn1c(=O)nc2n(-c3ccc(O)cc3)c3ccccc3nc-2c1=O | 0%
Cn1c(=O)nc2n(-c3ccc(Cl)c(C(F)(F)F)c3)c3ccccc3nc-2c1=O | 0%

From ChEMBL document CHEMBL1125711, “Flavins as potential antimalarials. 2. 3-Methyl-10-(substituted-phenyl) flavins” (J Med Chem, 1991)
